These results are taken from US20240115629A1, “ORAL COMPOSITION” (BLIS TECHNOLOGIES LIMITED, priority 2021, published 2024).

The subject of this assay is BLIS M18 and K12. Kind of assay: Comparison of foaming agents: inhibition on agar plates. In kind it is cell-based, Streptococcus salivarius. To be noted: 10 μL spotted on CABK12 and BaCa agar plates, 37° C. 5% CO2, 24 hrs. The procedure: Samples were prepared by • 1. mixing 1.1 g of BLIS M18 with 9.9 g of phosphate buffered saline (PBS) for 5 min and diluting by 1 in 10 with PBS • 2. adding to CABK12 and BaCa agar plates • 3. spotting 10 μL of foaming agent to plates and incubating at 37° C. 5% CO2 for 24 hrs, • 4. determining inhibition
As for Sodium Cocyl Isethionate, the “Inhibitory to BLIS M18 and K12” value is given as “Yes”.
The result for `CCCCCCCCCCCCOS(=O)(=O)[O-].[Na+]` [Sodium Lauryl Sulphate] reads “Yes”.
For the compound Coco Glucoside, the “Inhibitory to BLIS M18 and K12” value is reported as “Yes”.
The result for `CCCCCCCCCCO[C@@H]1O[C@H](CO)[C@@H](O)[C@H](O)[C@H]1O` [Decyl Glucoside] reads “Yes”; that for `CCCCCCCCO[C@@H]1O[C@H](CO)[C@@H](O)[C@H](O)[C@H]1O` [Caprylyl glucoside], “Yes”; that for Lauryl glucoside, “Yes”.
The result for `CCCCCCCC/C=C\CCCCCCCC(=O)OCCOCC(OCCO)C1OCC(OCCO)C1OCCO` (stereo not shown) [Polysorbate 80] reads “No”.
